Data from patent EP0394928A1, “Topical antiviral pharmaceutical composition containing a nonionic surfactant” (SYNTEX (U.S.A.) INC., priority 1989, dated 1990).
Marks after values point to notes of the source that are not given here.

Key:
HSV-1 (F strain) [1] = assay: Guinea pig model of cutaneous HSV-1 infection, acyclovir creams (Example 9); type: in vivo, female Hartley guinea pigs; conditions: 5% ACV in 5% Nonoxynol-9 cream; once a day for 3 days starting 24 hours post-infection; Day 4; treated vs nontreated side
Text: In vivo testing for antiviral activity against cutaneous HSV-1 infections is also done using a guinea pig model, for example, by the procedures described by Hubler, W.R., Jr., Troy, D.F., Troll, D., and Jarratt, M., "Guinea Pig Model For Cutaneous Herpes Simplex Virus Infection", J. Invest. Dermatol., 62:92-95 (1974). This procedure is a modification of a procedure initially described by Hubler, W.R., Jr., et al., "Guinea Pig Model Eor Cutaneous Herpes Simplex Virus Infection", J. Invest. Dermatol., 62:92-95 (1974). The backs of female Hartley guinea pigs were shaved, depilated and inoculated with HSV-1 (F strain) in four different areas by multiple shallow punctures. Two quadrants were on the left side and two on the right side of the dorsum. The animals were divided into 3 treatment groups of 6 animals each. The treatment groups were topically administered a cream on one side of the back once a day for 3 days starting 24 hours post-infection, the other side of back was not treated. The creams contained as an active ingredient either 5% acyclovir in a polyethylene glycol (PEG) based cream (Zovirax ®), 5% acyclovir in a 5% Nonoxynol-9 (N-9) cream or 5% Nonoxynol-9 cream only (placebo control). The numbers of lesions which developed on either the treated or untreated side of the back were counted on Day 4 after infection. […]

[2] = Partition coefficient (octanol / water); type: physicochemical; conditions: for logP: ratio of concentrations in nonpolar medium, e.g. octanol, and aqueous medium, e.g. water
Text: The modes of action reported for each compound are likewise distinct. Azone has been reported as a penetration enhancer, i.e., when it is co-administered with another agent, Azone will facilitate the movement of the agent into the cell by increasing lipid fluidity (Lambert, et al., (1989), Pharm Res., 6(9):798-803). The enhancement effect has been reported to be more pronounced with lipophilic agents and with agents with higher partition coefficients. A partition coefficient is the ratio of the concentrations of a given compound in a nonpolar medium, e.g., octanol and in an aqueous medium, e.g., water (ACV and DHPG have partition coefficients of less than 0.1, whereas Ada-DHPG has a partition coefficient of about 2.8 x10⁵).

HSV-1 (F strain) [3] = assay: Guinea pig model of cutaneous HSV-1 infection, dose response tests in Azone / Nonoxynol-9 creams (Example 8); type: in vivo, female Hartley guinea pigs; conditions: once a day 3 days from 24 hours post-infection, Day 4
Text: (§1) In vivo testing for antiviral activity against cutaneous HSV-1 infections is also done using a guinea pig model, for example, by the procedures described by Hubler, W.R., Jr., Troy, D.F., Troll, D., and Jarratt, M., "Guinea Pig Model For Cutaneous Herpes Simplex Virus Infection", J. Invest. Dermatol., 62:92-95 (1974).
(§2) This procedure is a modification of a procedure initially described by Hubler, W.R., Jr., et al., "Guinea Pig Model For Cutaneous Herpes Simplex Virus Infection", J. Invest. Dermatol., 62:92-95 (1974).
The backs of female Hartley guinea pigs were shaved, depilated and inoculated with HSV-1 (F strain) in four different areas by multiple shallow punctures. Two quadrants were on the left side and two on the right side of the dorsum. The guinea pigs were divided into treatment groups of usually 6 each. Treatment was topically administered once a day for 3 days starting 24 hours post-infection on one side of the back. The other side of the back was not treated. Different treatment groups were administered creams which contained 9-[1,3-di(1-adamantyl-carboxy)-2-propoxymethyl]guanine (Ada-DHPG), (10%, 5%, 2.5%, 1% or 0%) with 5% propylene glycol (PG), or 5% propylene glycol (PG); and either Nonoxynol-9 (5% and 2.5%) or Azone (10% and 5%). Additionally, other groups were administered creams containing Ada-DHPG (10%, 5%, 2.5%, 1% or 0%) with no propylene glycol and either 10% Azone or 5% Nonoxynol-9. Seven dose response tests were run in all. In each test the numbers of lesions were counted on Day 4 after infection. The treated side versus the nontreated side for the various groups were compared by a percent reduction in number of lesions which developed.

HSV-1 (F strain) [4] = assay: Guinea pig model of cutaneous HSV-1 infection, DHPG versus Ada-DHPG in PG, Azone or Nonoxynol-9 creams (Example 10); type: in vivo, female Hartley guinea pigs; conditions: 0.5 ml/animal once a day for 3 days, lesions counted Day 4
Text: as §1, §2
The backs of female Hartley guinea pigs were shaved, depilated and inoculated with HSV-1 (F strain) in four different areas by multiple shallow punctures. Two quadrants were on the left side and two on the right side of the dorsum. The animals were divided into groups and topically administered a cream on one side of the back (0.5 ml/animal) once a day for 3 days starting […] post infection. The other side of the back was not treated. The cream contained either a formulation of 9-(1,3-dihydroxy-2-propoxymethyl)guanine (DHPG) with Azone, Nonoxynol-9 (N-9), or propylene glycol (PG); or 9-[1,3-di(1-adamantylcarboxy)-2-propoxymethyl]guanine (Ada-DHPG) with Azone, Nonoxynol-9 (N-9), or propylene glycol (PG). Placebo groups were treated with only Azone, Nonoxynol-9 (N-9) or propylene glycol (PG). Both DHPG and Ada-DHPG were run in each test with a single formulation. A total of 4 tests were run. In each study, the number of lesions which developed were counted on Day 4 after infection. The treated side versus nontreated side for the various groups were compared by a percent reduction in the number of lesions which developed.

Structure (SMILES): Nc1nc2c(ncn2COCCO)c(=O)[nH]1 [ACV, 9-(2-hydroxyethoxymethyl)guanine]
- Percent Reduction in numbers of lesions (HSV-1 (F strain) [1]): 69* Percent
- partition coefficient ([2]; octanol/water): less than 0.1

Structure (SMILES): Nc1nc2c(ncn2COC(COC(=O)C23CC4CC(CC(C4)C2)C3)COC(=O)C23CC4CC(CC(C4)C2)C3)c(=O)[nH]1 (stereo not shown) [Ada-DHPG, 9-[1,3-di(1-adamantylcarboxy)-2-propoxymethyl]guanine]
- logP [2]: ~5.45
- Percent Reduction in number of lesions (HSV-1 (F strain) [3]; Test 1: 1% Ada-DHPG, 5% PG (no surfactant added) cream): 12%
- Percent Reduction in number of lesions (HSV-1 (F strain) [3]; Test 1: 2.5% Ada-DHPG, 5% PG (no surfactant added) cream): 16%
- Percent Reduction in number of lesions (HSV-1 (F strain) [3]; Test 1: 5% Ada-DHPG, 5% PG (no surfactant added) cream): 3%
- Percent Reduction in number of lesions (HSV-1 (F strain) [3]; Test 1: 10% Ada-DHPG, 5% PG (no surfactant added) cream): 37* Percent
- Percent Reduction in number of lesions (HSV-1 (F strain) [3]; Test 2: 1% Ada-DHPG, 5% Azone cream (with 5% PG)): -6%
- Percent Reduction in number of lesions (HSV-1 (F strain) [3]; Test 2: 2.5% Ada-DHPG, 5% Azone cream (with 5% PG)): 14%
- Percent Reduction in number of lesions (HSV-1 (F strain) [3]; Test 2: 5% Ada-DHPG, 5% Azone cream (with 5% PG)): 14%
- Percent Reduction in number of lesions (HSV-1 (F strain) [3]; Test 2: 10% Ada-DHPG, 5% Azone cream (with 5% PG)): 29%
- Percent Reduction in number of lesions (HSV-1 (F strain) [3]; Test 3: 1% Ada-DHPG, 10% Azone cream (with 5% PG)): 43* Percent
- Percent Reduction in number of lesions (HSV-1 (F strain) [3]; Test 3: 2.5% Ada-DHPG, 10% Azone cream (with 5% PG)): 35* Percent
- Percent Reduction in number of lesions (HSV-1 (F strain) [3]; Test 3: 5% Ada-DHPG, 10% Azone cream (with 5% PG)): 73* Percent
- Percent Reduction in number of lesions (HSV-1 (F strain) [3]; Test 3: 10% Ada-DHPG, 10% Azone cream (with 5% PG)): 78* Percent
- Percent Reduction in number of lesions (HSV-1 (F strain) [3]; Test 4: 1% Ada-DHPG, 10% Azone (no PG) cream): 27%
- Percent Reduction in number of lesions (HSV-1 (F strain) [3]; Test 4: 2.5% Ada-DHPG, 10% Azone (no PG) cream): 18%
- Percent Reduction in number of lesions (HSV-1 (F strain) [3]; Test 4: 5% Ada-DHPG, 10% Azone (no PG) cream): 27%
- Percent Reduction in number of lesions (HSV-1 (F strain) [3]; Test 4: 10% Ada-DHPG, 10% Azone (no PG) cream): 47* Percent
- Percent Reduction in number of lesions (HSV-1 (F strain) [3]; Test 5: 1% Ada-DHPG, 2.5% Nonoxynol-9 cream (with 5% PG)): 33%
- Percent Reduction in number of lesions (HSV-1 (F strain) [3]; Test 5: 2.5% Ada-DHPG, 2.5% Nonoxynol-9 cream (with 5% PG)): 52* Percent
- Percent Reduction in number of lesions (HSV-1 (F strain) [3]; Test 5: 5% Ada-DHPG, 2.5% Nonoxynol-9 cream (with 5% PG)): 52* Percent
- Percent Reduction in number of lesions (HSV-1 (F strain) [3]; Test 5: 10% Ada-DHPG, 2.5% Nonoxynol-9 cream (with 5% PG)): 64* Percent
- Percent Reduction in number of lesions (HSV-1 (F strain) [3]; Test 6: 1% Ada-DHPG, 5% Nonoxynol-9 cream (with 5% PG)): 59* Percent
- Percent Reduction in number of lesions (HSV-1 (F strain) [3]; Test 6: 2.5% Ada-DHPG, 5% Nonoxynol-9 cream (with 5% PG)): 65* Percent
- Percent Reduction in number of lesions (HSV-1 (F strain) [3]; Test 6: 5% Ada-DHPG, 5% Nonoxynol-9 cream (with 5% PG)): 92* Percent
- Percent Reduction in number of lesions (HSV-1 (F strain) [3]; Test 6: 10% Ada-DHPG, 5% Nonoxynol-9 cream (with 5% PG)): 88* Percent
- Percent Reduction in number of lesions (HSV-1 (F strain) [3]; Test 7: 1% Ada-DHPG, 5% Nonoxynol-9 (no PG) cream): 57* Percent
- Percent Reduction in number of lesions (HSV-1 (F strain) [3]; Test 7: 2.5% Ada-DHPG, 5% Nonoxynol-9 (no PG) cream): 68* Percent
- Percent Reduction in number of lesions (HSV-1 (F strain) [3]; Test 7: 5% Ada-DHPG, 5% Nonoxynol-9 (no PG) cream): 90* Percent
- Percent Reduction in number of lesions (HSV-1 (F strain) [3]; Test 7: 10% Ada-DHPG, 5% Nonoxynol-9 (no PG) cream): 82* Percent
- Percent Reduction in the number of lesions (HSV-1 (F strain) [4]; Test 1: 10% Ada-DHPG in 25% PG cream): 51* Percent
- Percent Reduction in the number of lesions (HSV-1 (F strain) [4]; Test 2: 10% Ada-DHPG in 5% PG cream): 42* Percent
- Percent Reduction in the number of lesions (HSV-1 (F strain) [4]; Test 3: 10% Ada-DHPG in 10% Azone cream): 76* Percent
- Percent Reduction in the number of lesions (HSV-1 (F strain) [4]; Test 4: 10% Ada-DHPG in 5% Nonoxynol-9 cream): 77* Percent

Structure (SMILES): Nc1nc2c(ncn2COC(CO)CO)c(=O)[nH]1 [DHPG, 9-(1,3-dihydroxy-2-propoxymethyl)guanine, reference compound]
- logP [2]: < -1
- Percent Reduction in the number of lesions (HSV-1 (F strain) [4]; Test 1: 4.4% DHPG in 25% PG cream): 75* Percent
- Percent Reduction in the number of lesions (HSV-1 (F strain) [4]; Test 2: 4.4% DHPG in 5% PG cream): 68* Percent
- Percent Reduction in the number of lesions (HSV-1 (F strain) [4]; Test 3: 4.4% DHPG in 10% Azone cream): 100* Percent
- Percent Reduction in the number of lesions (HSV-1 (F strain) [4]; Test 4: 4.4% DHPG in 5% Nonoxynol-9 cream): 94* Percent
